Assay results published in patent US20240208968A1, “ALPHA V BETA 6 AND ALPHA V BETA 1 INTEGRIN INHIBITORS AND USES THEREOF” (DiCE Molecules SV, Inc., priority 2021, published 2024).
Where a name gives a salt, the structure may show the parent alone.

Key:
αvβ1 = αvβ1 (Homo sapiens, UniProt P05556+P06756); experiment: Solid Phase Integrin αvβ1 Assay; type: binding
Procedure, shortened: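 Wells coated with 1 µg/mL recombinant TGFb1-LAP and blocked with 2% BSA/TBST, 1 mM MnCl2; αvβ1 (added at 0.2 µg/mL) and compound incubated 90 min at room temperature. Bound integrin detected by streptavidin-HRP (20 min) and TMB after Mn-containing washes; IC50 by four-parameter logistic fit.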

αvβ6 = αvβ6 (Homo sapiens, UniProt P06756+P18564); experiment: Solid Phase Integrin αvβ6 Assay; type: binding
Sequence of αvβ6 (P06756 31-992 limits assumed): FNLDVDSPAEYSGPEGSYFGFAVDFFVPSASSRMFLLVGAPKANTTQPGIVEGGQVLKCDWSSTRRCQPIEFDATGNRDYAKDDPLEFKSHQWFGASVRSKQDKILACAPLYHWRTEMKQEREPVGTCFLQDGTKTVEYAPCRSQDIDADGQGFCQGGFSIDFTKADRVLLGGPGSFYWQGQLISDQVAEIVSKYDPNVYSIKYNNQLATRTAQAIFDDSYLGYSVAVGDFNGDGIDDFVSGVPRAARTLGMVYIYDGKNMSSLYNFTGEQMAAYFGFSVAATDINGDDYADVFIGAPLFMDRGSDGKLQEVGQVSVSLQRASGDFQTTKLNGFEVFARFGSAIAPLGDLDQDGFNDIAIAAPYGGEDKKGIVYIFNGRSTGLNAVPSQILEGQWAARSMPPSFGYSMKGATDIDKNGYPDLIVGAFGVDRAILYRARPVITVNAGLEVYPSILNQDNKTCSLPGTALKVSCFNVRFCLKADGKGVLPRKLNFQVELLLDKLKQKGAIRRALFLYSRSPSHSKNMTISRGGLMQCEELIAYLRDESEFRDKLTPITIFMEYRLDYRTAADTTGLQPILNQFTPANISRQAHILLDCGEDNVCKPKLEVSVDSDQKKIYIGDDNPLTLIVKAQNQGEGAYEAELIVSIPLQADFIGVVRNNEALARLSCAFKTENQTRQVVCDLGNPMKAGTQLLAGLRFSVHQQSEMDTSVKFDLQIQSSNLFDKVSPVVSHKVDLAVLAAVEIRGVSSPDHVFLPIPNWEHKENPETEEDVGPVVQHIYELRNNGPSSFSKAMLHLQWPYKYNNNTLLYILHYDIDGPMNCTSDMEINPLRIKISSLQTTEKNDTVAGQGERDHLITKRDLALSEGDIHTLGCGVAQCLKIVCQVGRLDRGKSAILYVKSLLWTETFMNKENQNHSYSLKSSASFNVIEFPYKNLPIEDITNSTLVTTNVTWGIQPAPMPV
Sequence of αvβ6 (P18564 22-707 limits assumed): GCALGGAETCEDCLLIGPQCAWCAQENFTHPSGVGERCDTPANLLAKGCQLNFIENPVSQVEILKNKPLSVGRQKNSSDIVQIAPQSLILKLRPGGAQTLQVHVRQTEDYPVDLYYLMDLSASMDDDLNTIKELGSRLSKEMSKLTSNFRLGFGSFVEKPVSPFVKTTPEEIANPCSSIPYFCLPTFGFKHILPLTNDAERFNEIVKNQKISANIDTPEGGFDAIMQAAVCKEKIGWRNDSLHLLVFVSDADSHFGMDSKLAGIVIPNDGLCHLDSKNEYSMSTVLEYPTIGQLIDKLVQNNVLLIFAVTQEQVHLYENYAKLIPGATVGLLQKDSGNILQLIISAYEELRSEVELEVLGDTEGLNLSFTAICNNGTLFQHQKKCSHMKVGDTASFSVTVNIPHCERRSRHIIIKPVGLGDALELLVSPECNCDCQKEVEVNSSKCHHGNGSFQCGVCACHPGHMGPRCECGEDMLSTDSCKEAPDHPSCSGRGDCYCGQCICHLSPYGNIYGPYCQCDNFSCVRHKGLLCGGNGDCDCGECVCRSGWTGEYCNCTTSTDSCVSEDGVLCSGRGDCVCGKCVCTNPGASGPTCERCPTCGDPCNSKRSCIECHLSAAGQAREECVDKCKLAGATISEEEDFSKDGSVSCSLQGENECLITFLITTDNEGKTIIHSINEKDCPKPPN
Procedure, shortened: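 Plates coated with 1 μg/mL recombinant TGFb1-LAP; compounds and αvβ6 (0.2 μg/mL diluted stock) incubated 1 h at room temperature in 2% BSA/TBST with 1 mM MnCl2. Bound integrin detected with streptavidin-HRP and TMB; IC50 from four-parameter logistic fits.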

Sequence of αvβ1 (P06756 31-992 limits assumed): as the sequence (P06756 31-992 limits assumed) above
Sequence of αvβ1 (P05556 21-728 limits assumed): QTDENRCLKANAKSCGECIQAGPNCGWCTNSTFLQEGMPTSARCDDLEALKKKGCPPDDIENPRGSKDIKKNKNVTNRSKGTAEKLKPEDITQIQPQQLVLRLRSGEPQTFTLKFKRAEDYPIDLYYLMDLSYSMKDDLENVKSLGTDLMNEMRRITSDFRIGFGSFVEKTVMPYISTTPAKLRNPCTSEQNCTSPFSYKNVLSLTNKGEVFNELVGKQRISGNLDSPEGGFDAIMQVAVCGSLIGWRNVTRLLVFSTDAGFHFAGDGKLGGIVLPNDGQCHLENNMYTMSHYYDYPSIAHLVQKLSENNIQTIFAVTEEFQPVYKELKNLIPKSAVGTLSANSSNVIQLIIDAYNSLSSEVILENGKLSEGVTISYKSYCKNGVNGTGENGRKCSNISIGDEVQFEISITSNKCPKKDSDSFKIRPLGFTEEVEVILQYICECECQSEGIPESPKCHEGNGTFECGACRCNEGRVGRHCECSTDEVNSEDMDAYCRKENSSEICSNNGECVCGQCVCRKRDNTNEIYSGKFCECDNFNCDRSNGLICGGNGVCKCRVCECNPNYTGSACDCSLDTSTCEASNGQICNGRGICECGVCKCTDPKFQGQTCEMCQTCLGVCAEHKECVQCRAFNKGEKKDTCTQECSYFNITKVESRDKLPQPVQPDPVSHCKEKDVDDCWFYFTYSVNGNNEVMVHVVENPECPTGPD

Row | Compound | IC50 (αvβ1) [nM] | IC50 (αvβ6) [nM]
1 | O=C(NC[C@@H](C(=O)O)c1cccc(-c2ccccc2)c1)[C@@H]1CCCN(CCCc2ccc3c(n2)NCCC3)C1 [Compound 256-A, 2-([1,1′-biphenyl]-3-yl)-3-((R)-1-(3-(5,6,7,8-tetrahydro-1,8-naphthyridin-2-yl)propyl)piperidine-3-carboxamido)propanoic acid] | 100 to 1000 | 100 to 1000
2 | O=C(NC[C@H](C(=O)O)c1cccc(C2CC2)c1)[C@@H]1CCCN(CCCc2ccc3c(n2)NCCC3)C1 [Compound 258-A, 2-(3-cyclopropylphenyl)-3-((R)-1-(3-(5,6,7,8-tetrahydro-1,8-naphthyridin-2-yl)propyl)piperidine-3-carboxamido)propanoic acid] | 100 to 1000 | 100 to 1000
3 | O=C(NC[C@@H](C(=O)O)c1ccccc1C1CC1)[C@@H]1CCCN(CCCc2ccc3c(n2)NCCC3)C1 [Compound 260-B, 2-(2-cyclopropylphenyl)-3-((R)-1-(3-(5,6,7,8-tetrahydro-1,8-naphthyridin-2-yl)propyl)piperidine-3-carboxamido)propanoic acid] | 100 to 1000 | > 1000
4 | CC(C)(C)OC(=O)N[C@@H](CNC(=O)[C@@H]1CCCN(CCCc2ccc3c(n2)NCCC3)C1)C(=O)O [Compound 265, (S)-2-((tert-butoxycarbonyl)amino)-3-((R)-1-(3-(5,6,7,8-tetrahydro-1,8-naphthyridin-2-yl)propyl)piperidine-3-carboxamido)propanoic acid] | < 100 | < 100
5 | CN1CCc2ccc(S(=O)(=O)N3CCC[C@@H](C(=O)N[C@@H](CNC(=O)[C@@H]4CCCN(CCCc5ccc6c(n5)NCCC6)C4)C(=O)O)C3)cc21 [Compound 267, (S)-2-((R)-1-((1-methylindolin-6-yl)sulfonyl)piperidine-3-carboxamido)-3-((R)-1-(3-(5,6,7,8-tetrahydro-1,8-naphthyridin-2-yl)propyl)piperidine-3-carboxamido)propanoic acid] | < 100 | < 100
6 | CO[C@H]1CCN(C(=O)[C@@H]2CCCC[C@H]2C(=O)N[C@@H](CNC(=O)[C@@H]2CCCN(CCCc3ccc4c(n3)NCCC4)C2)C(=O)O)C1 [Compound 268, (S)-2-((1R,2R)-2-((S)-3-methoxypyrrolidine-1-carbonyl)cyclohexane-1-carboxamido)-3-((R)-1-(3-(5,6,7,8-tetrahydro-1,8-naphthyridin-2-yl)propyl)piperidine-3-carboxamido)propanoic acid] | < 100 | < 100
7 | CC1(CN[C@@H](CNC(=O)[C@@H]2CCCN(CCCc3ccc4c(n3)NCCC4)C2)C(=O)O)CCCCC1 [Compound 269, (S)-2-(((1-methylcyclohexyl)methyl)amino)-3-((R)-1-(3-(5,6,7,8-tetrahydro-1,8-naphthyridin-2-yl)propyl)piperidine-3-carboxamido)propanoic acid] | > 1000 | 100 to 1000
8 | O=C(NC[C@H](NC(=O)C12CCC(CC1)CC2)C(=O)O)[C@@H]1CCCN(CCCc2ccc3c(n2)NCCC3)C1 [Compound 270, (S)-2-(bicyclo[2.2.2]octane-1-carboxamido)-3-((R)-1-(3-(5,6,7,8-tetrahydro-1,8-naphthyridin-2-yl)propyl)piperidine-3-carboxamido)propanoic acid] | < 100 | < 100
9 | O=C(NC[C@H](Nc1ncnc2ccccc12)C(=O)O)[C@@H]1CCCN(CCCc2ccc3c(n2)NCCC3)C1 [Compound 271, (S)-2-(quinazolin-4-ylamino)-3-((R)-1-(3-(5,6,7,8-tetrahydro-1,8-naphthyridin-2-yl)propyl)piperidine-3-carboxamido)propanoic acid] | < 100 | < 100
10 | O=C(NC[C@H](NS(=O)(=O)c1ccccc1)C(=O)O)[C@@H]1CCCN(CCCc2ccc3c(n2)NCCC3)C1 [Compound 272, (S)-2-(phenylsulfonamido)-3-((R)-1-(3-(5,6,7,8-tetrahydro-1,8-naphthyridin-2-yl)propyl)piperidine-3-carboxamido)propanoic acid] | < 100 | < 100

Second part, the compound after the results:

Row | IC50 (αvβ1) [nM] | IC50 (αvβ6) [nM] | Compound
11 | < 100 | 100 to 1000 | O=C(NC[C@H](C(=O)O)c1ccc2c(c1)CCC2)[C@@H]1CCCN(CCCc2ccc3c(n2)NCCC3)C1 [Compound 254-A, 2-(2,3-dihydro-1H-inden-5-yl)-3-((R)-1-(3-(5,6,7,8-tetrahydro-1,8-naphthyridin-2-yl)propyl)piperidine-3-carboxamido)propanoic acid]
12 | < 100 | < 100 | O=C(NC[C@@H](C(=O)O)c1ccc2c(c1)CCC2)[C@@H]1CCCN(CCCc2ccc3c(n2)NCCC3)C1 [Compound 254-B, 2-(2,3-dihydro-1H-inden-5-yl)-3-((R)-1-(3-(5,6,7,8-tetrahydro-1,8-naphthyridin-2-yl)propyl)piperidine-3-carboxamido)propanoic acid]
13 | < 100 | < 100 | O=C(O)C(CNC(=O)[C@@H]1CCCN(CCCc2ccc3c(n2)NCCC3)C1)c1cccc(Br)c1 (stereo partly drawn) [Compound 255, 2-(3-bromophenyl)-3-((R)-1-(3-(5,6,7,8-tetrahydro-1,8-naphthyridin-2-yl)propyl)piperidine-3-carboxamido)propanoic acid hydrochloride]
14 | < 100 | < 100 | O=C(NC[C@H](C(=O)O)c1cccc(-c2ccccc2)c1)[C@@H]1CCCN(CCCc2ccc3c(n2)NCCC3)C1 [Compound 256-B, 2-([1,1′-biphenyl]-3-yl)-3-((R)-1-(3-(5,6,7,8-tetrahydro-1,8-naphthyridin-2-yl)propyl)piperidine-3-carboxamido)propanoic acid]
15 | < 100 | < 100 | Cc1cc(C)n(-c2cccc([C@H](CNC(=O)[C@@H]3CCCN(CCCc4ccc5c(n4)NCCC5)C3)C(=O)O)c2)n1 [Compound 257-A, 2-(3-(3,5-dimethyl-1H-pyrazol-1-yl)phenyl)-3-((R)-1-(3-(5,6,7,8-tetrahydro-1,8-naphthyridin-2-yl)propyl)piperidine-3-carboxamido)propanoic acid]
16 | < 100 | < 100 | Cc1cc(C)n(-c2cccc([C@@H](CNC(=O)[C@@H]3CCCN(CCCc4ccc5c(n4)NCCC5)C3)C(=O)O)c2)n1 [Compound 257-B, 2-(3-(3,5-dimethyl-1H-pyrazol-1-yl)phenyl)-3-((R)-1-(3-(5,6,7,8-tetrahydro-1,8-naphthyridin-2-yl)propyl)piperidine-3-carboxamido)propanoic acid]
17 | < 100 | < 100 | O=C(NC[C@@H](C(=O)O)c1cccc(C2CC2)c1)[C@@H]1CCCN(CCCc2ccc3c(n2)NCCC3)C1 [Compound 258-B, 2-(3-cyclopropylphenyl)-3-((R)-1-(3-(5,6,7,8-tetrahydro-1,8-naphthyridin-2-yl)propyl)piperidine-3-carboxamido)propanoic acid]
18 | < 100 | < 100 | O=C(NC[C@H](C(=O)O)c1ccc(C2CC2)cc1)[C@@H]1CCCN(CCCc2ccc3c(n2)NCCC3)C1 [Compound 259-A, 2-(4-cyclopropylphenyl)-3-((R)-1-(3-(5,6,7,8-tetrahydro-1,8-naphthyridin-2-yl)propyl)piperidine-3-carboxamido)propanoic acid]
19 | < 100 | < 100 | O=C(NC[C@H](C(=O)O)c1ccccc1C1CC1)[C@@H]1CCCN(CCCc2ccc3c(n2)NCCC3)C1 [Compound 260-A, 2-(2-cyclopropylphenyl)-3-((R)-1-(3-(5,6,7,8-tetrahydro-1,8-naphthyridin-2-yl)propyl)piperidine-3-carboxamido)propanoic acid]
20 | < 100 | < 100 | O=C(NC[C@H](Nc1cccc2ccccc12)C(=O)O)[C@@H]1CCCN(CCCc2ccc3c(n2)NCCC3)C1 [Compound 261, (S)-2-(naphthalen-1-ylamino)-3-((R)-1-(3-(5,6,7,8-tetrahydro-1,8-naphthyridin-2-yl)propyl)piperdine-3-carboxamido)propanoic acid]
21 | < 100 | < 100 | O=C(N[C@@H](CNC(=O)[C@@H]1CCCN(CCCc2ccc3c(n2)NCCC3)C1)C(=O)O)C1CCCCC1 [Compound 262, (S)-2-(cyclohexanecarboxamido)-3-((R)-1-(3-(5,6,7,8-tetrahydro-1,8-naphthyridin-2-yl)propyl)piperidine-3-carboxamido)propanoic acid hydrochloride]
22 | < 100 | < 100 | CC1(C(=O)N[C@@H](CNC(=O)[C@@H]2CCCN(CCCc3ccc4c(n3)NCCC4)C2)C(=O)O)CCCCC1 [Compound 263, (S)-2-(1-methylcyclohexane-1-carboxamido)-3-((R)-1-(3-(5,6,7,8-tetrahydro-1,8-naphthyridin-2-yl)propyl)piperidine-3-carboxamido)propanoic acid hydrochloride]
23 | < 100 | < 100 | O=C(NC[C@H](NC(=O)[C@@H]1CCCC[C@H]1C(=O)N1CCCC1)C(=O)O)[C@@H]1CCCN(CCCc2ccc3c(n2)NCCC3)C1 [Compound 264, (S)-2-((1R,2R)-2-(pyrrolidine-1-carbonyl)cyclohexane-1-carboxamido)-3-((R)-1-(3-(5,6,7,8-tetrahydro-1,8-naphthyridin-2-yl)propyl)piperidine-3-carboxamido)propanoic acid]
24 | < 100 | < 100 | CNC(=O)c1cccc(CNC(=O)[C@@H]2CCCC[C@H]2C(=O)N[C@@H](CNC(=O)[C@@H]2CCCN(CCCc3ccc4c(n3)NCCC4)C2)C(=O)O)c1 [Compound 266, (S)-2-((1R,2R)-2-((3-(methylcarbamoyl)benzyl)carbamoyl)cyclohexane-1-carboxamido)-3-((R)-1-(3-(5,6,7,8-tetrahydro-1,8-naphthyridin-2-yl)propyl)piperidine-3-carboxamido)propanoic acid]
